# Measurements from paper PMC11005723, “Development of Complementary Photo‐arginine/lysine to Promote Discovery of Arg/Lys hPTMs Interactomes” (Advanced Science, 2024).
# Non-standard residues stand in square brackets, D forms with d. No end group written: not given here. *: point of attachment. Biotin = O=C1N[C@H]2[C@H](CS[C@H]2CCCCC(=O)*)N1; R(dz) = photo-arginine
# Test system: HEK293T nuclear lysates
# Assay: SILAC‐based pull‐down proteomics H4K5acK8ac/H4K5 (probes 8/5)
# Assay type: binding, human
# Conditions: for B6 log2 (H4K5ac8ac/H4K5): replicate B6; for A6 log2 (H4K5ac8ac/H4K5): replicate A6
# [1] = protein YWHAB, Bos taurus (CON_00829553.1)
substance,measurement,setting,value
probe 8: H4K5acK8ac peptide probe with photo‐arginine R(dz) and K(biotin) (SG[R(dz)]GK(Ac)GGK(Ac)GLGKGGK(Biotin)),B6 log2 (H4K5ac8ac/H4K5),protein MYH9 (P35579),-0.04782
same,A6 log2 (H4K5ac8ac/H4K5),protein NAA10 (P41227),-0.3046
same,B6 log2 (H4K5ac8ac/H4K5),protein NAA10 (P41227),0.05206
same,A6 log2 (H4K5ac8ac/H4K5),protein NACC1 (Q96RE7),0.2811
same,B6 log2 (H4K5ac8ac/H4K5),protein NACC1 (Q96RE7),0.03418
same,A6 log2 (H4K5ac8ac/H4K5),protein NFXL1 (Q6ZNB6),0.2111
same,B6 log2 (H4K5ac8ac/H4K5),protein NFXL1 (Q6ZNB6),0.02469
same,A6 log2 (H4K5ac8ac/H4K5),protein NOL9 (Q5SY16),-0.2567
same,B6 log2 (H4K5ac8ac/H4K5),protein NOL9 (Q5SY16),-0.02031
same,A6 log2 (H4K5ac8ac/H4K5),protein PA2G4 (Q9UQ80),0.1563
same,B6 log2 (H4K5ac8ac/H4K5),protein PA2G4 (Q9UQ80),0.03904
same,A6 log2 (H4K5ac8ac/H4K5),protein PACSIN2 (Q9UNF0),0
same,B6 log2 (H4K5ac8ac/H4K5),protein PACSIN2 (Q9UNF0),-0.04928
same,A6 log2 (H4K5ac8ac/H4K5),protein PBX1 (A0A087X0P4),0.6964
same,B6 log2 (H4K5ac8ac/H4K5),protein PBX1 (A0A087X0P4),0.06283
same,A6 log2 (H4K5ac8ac/H4K5),protein POLR1A (B9ZVN9),0.06415
same,B6 log2 (H4K5ac8ac/H4K5),protein POLR1A (B9ZVN9),-0.04145
same,A6 log2 (H4K5ac8ac/H4K5),protein PPA1 (Q15181),0.1577
same,B6 log2 (H4K5ac8ac/H4K5),protein PPA1 (Q15181),0.07333
same,A6 log2 (H4K5ac8ac/H4K5),protein PPP1CB (P62140),-0.299
same,B6 log2 (H4K5ac8ac/H4K5),protein PPP1CB (P62140),-0.01665
same,A6 log2 (H4K5ac8ac/H4K5),protein PPWD1 (F5H7P7),-0.2794
same,B6 log2 (H4K5ac8ac/H4K5),protein PPWD1 (F5H7P7),-0.02682
same,A6 log2 (H4K5ac8ac/H4K5),protein PRPF4 (O43172),-0.3068
same,B6 log2 (H4K5ac8ac/H4K5),protein PRPF4 (O43172),-0.007391
same,A6 log2 (H4K5ac8ac/H4K5),protein PRPF19 (Q9UMS4),-0.3378
same,B6 log2 (H4K5ac8ac/H4K5),protein PRPF19 (Q9UMS4),0.03114
same,A6 log2 (H4K5ac8ac/H4K5),protein RAB18 (Q9NP72),-0.7664
same,B6 log2 (H4K5ac8ac/H4K5),protein RAB18 (Q9NP72),0.06785
same,A6 log2 (H4K5ac8ac/H4K5),protein RBBP4 (Q09028),-0.301
same,B6 log2 (H4K5ac8ac/H4K5),protein RBBP4 (Q09028),-0.04139
same,A6 log2 (H4K5ac8ac/H4K5),protein RBBP5 (Q15291),0.327
same,B6 log2 (H4K5ac8ac/H4K5),protein RBBP5 (Q15291),0.03881
same,A6 log2 (H4K5ac8ac/H4K5),protein RBM17 (Q5W011),-0.1033
same,B6 log2 (H4K5ac8ac/H4K5),protein RBM17 (Q5W011),-0.0008232
same,A6 log2 (H4K5ac8ac/H4K5),protein RFC4 (C9JTT7),-0.05533
same,B6 log2 (H4K5ac8ac/H4K5),protein RFC4 (C9JTT7),0.05642
same,A6 log2 (H4K5ac8ac/H4K5),protein RIF1 (Q5UIP0),0.1175
same,B6 log2 (H4K5ac8ac/H4K5),protein RIF1 (Q5UIP0),0.06957
same,A6 log2 (H4K5ac8ac/H4K5),protein RLTPR (Q6F5E8),0.7852
same,B6 log2 (H4K5ac8ac/H4K5),protein RLTPR (Q6F5E8),0.007574
same,A6 log2 (H4K5ac8ac/H4K5),protein RNF113A (O15541),-0.4653
same,B6 log2 (H4K5ac8ac/H4K5),protein RNF113A (O15541),0.03846
same,A6 log2 (H4K5ac8ac/H4K5),protein RPL18A (M0R3D6),-0.4315
same,B6 log2 (H4K5ac8ac/H4K5),protein RPL18A (M0R3D6),-0.04492
same,A6 log2 (H4K5ac8ac/H4K5),protein RPL23 (P62829),-0.1756
same,B6 log2 (H4K5ac8ac/H4K5),protein RPL23 (P62829),0.05216
same,A6 log2 (H4K5ac8ac/H4K5),protein SART1 (O43290),-0.3683
same,B6 log2 (H4K5ac8ac/H4K5),protein SART1 (O43290),0.001654
same,A6 log2 (H4K5ac8ac/H4K5),protein SEPT9 (Q9UHD8),0.1535
same,B6 log2 (H4K5ac8ac/H4K5),protein SEPT9 (Q9UHD8),-0.026
same,A6 log2 (H4K5ac8ac/H4K5),protein SKP1 (E5RJR5),-0.01806
same,B6 log2 (H4K5ac8ac/H4K5),protein SKP1 (E5RJR5),0.0159
same,A6 log2 (H4K5ac8ac/H4K5),protein SMARCC1 (Q92922),-0.08326
same,B6 log2 (H4K5ac8ac/H4K5),protein SMARCC1 (Q92922),0.04543
same,A6 log2 (H4K5ac8ac/H4K5),protein SMC4 (E9PD53),-0.08362
same,B6 log2 (H4K5ac8ac/H4K5),protein SMC4 (E9PD53),0.02245
same,A6 log2 (H4K5ac8ac/H4K5),protein SRP9 (P49458),-0.01043
same,B6 log2 (H4K5ac8ac/H4K5),protein SRP9 (P49458),0.03654
same,A6 log2 (H4K5ac8ac/H4K5),protein SRPRB (H7C4H2),0.3686
same,B6 log2 (H4K5ac8ac/H4K5),protein SRPRB (H7C4H2),0.07795
same,A6 log2 (H4K5ac8ac/H4K5),protein STRAP (Q9Y3F4),0.01226
same,B6 log2 (H4K5ac8ac/H4K5),protein STRAP (Q9Y3F4),0.01225
same,A6 log2 (H4K5ac8ac/H4K5),protein STUB1 (Q9UNE7),0.5197
same,B6 log2 (H4K5ac8ac/H4K5),protein STUB1 (Q9UNE7),0.03834
same,A6 log2 (H4K5ac8ac/H4K5),protein SUGP2 (M0R3F6),-0.3599
same,B6 log2 (H4K5ac8ac/H4K5),protein SUGP2 (M0R3F6),0.02065
same,A6 log2 (H4K5ac8ac/H4K5),protein SYMPK (Q92797),-0.08997
same,B6 log2 (H4K5ac8ac/H4K5),protein SYMPK (Q92797),-0.0308
same,A6 log2 (H4K5ac8ac/H4K5),protein TBC1D4 (O60343),0.1383
same,B6 log2 (H4K5ac8ac/H4K5),protein TBC1D4 (O60343),-0.03399
same,A6 log2 (H4K5ac8ac/H4K5),protein TBL3 (Q12788),-0.1597
same,B6 log2 (H4K5ac8ac/H4K5),protein TBL3 (Q12788),-0.02533
same,A6 log2 (H4K5ac8ac/H4K5),protein TKT (P29401),-0.1341
same,B6 log2 (H4K5ac8ac/H4K5),protein TKT (P29401),0.0497
same,A6 log2 (H4K5ac8ac/H4K5),protein TMPO (P42167),0.4117
same,B6 log2 (H4K5ac8ac/H4K5),protein TMPO (P42167),0.03759
same,A6 log2 (H4K5ac8ac/H4K5),protein TTLL12 (Q14166),0.2441
same,B6 log2 (H4K5ac8ac/H4K5),protein TTLL12 (Q14166),0.0292
same,A6 log2 (H4K5ac8ac/H4K5),protein TXLNG (Q9NUQ3),0.4545
same,B6 log2 (H4K5ac8ac/H4K5),protein TXLNG (Q9NUQ3),-0.0116
same,A6 log2 (H4K5ac8ac/H4K5),protein UHRF1 (Q96T88),-0.6652
same,B6 log2 (H4K5ac8ac/H4K5),protein UHRF1 (Q96T88),0.04746
same,A6 log2 (H4K5ac8ac/H4K5),protein UHRF2 (Q96PU4),-0.006334
same,B6 log2 (H4K5ac8ac/H4K5),protein UHRF2 (Q96PU4),0.0767
same,A6 log2 (H4K5ac8ac/H4K5),protein UPF1 (Q92900),-0.46
same,B6 log2 (H4K5ac8ac/H4K5),protein UPF1 (Q92900),-0.01045
same,A6 log2 (H4K5ac8ac/H4K5),protein VAPB (O95292),-0.312
same,B6 log2 (H4K5ac8ac/H4K5),protein VAPB (O95292),0.06269
same,A6 log2 (H4K5ac8ac/H4K5),protein WAPAL (Q7Z5K2),0.1532
same,B6 log2 (H4K5ac8ac/H4K5),protein WAPAL (Q7Z5K2),-0.009146
same,A6 log2 (H4K5ac8ac/H4K5),protein XRCC5 (P13010),-0.05414
same,B6 log2 (H4K5ac8ac/H4K5),protein XRCC5 (P13010),-0.03221
same,A6 log2 (H4K5ac8ac/H4K5),[1],-0.1065
same,B6 log2 (H4K5ac8ac/H4K5),[1],0.02961
same,A6 log2 (H4K5ac8ac/H4K5),protein ZNF330 (Q9Y3S2),0.1967
same,B6 log2 (H4K5ac8ac/H4K5),protein ZNF330 (Q9Y3S2),-0.03674
same,A6 log2 (H4K5ac8ac/H4K5),protein ZNF579 (Q8NAF0),-0.0908
same,B6 log2 (H4K5ac8ac/H4K5),protein ZNF579 (Q8NAF0),0.0364
same,A6 log2 (H4K5ac8ac/H4K5),protein ZZZ3 (Q8IYH5),-0.06959
same,B6 log2 (H4K5ac8ac/H4K5),protein ZZZ3 (Q8IYH5),-0.004188
